Experimental data from patent publication US20100197610A1, “FRUCTOSE 1, 6 BISPHOSPHATE - A NOVEL ANTICONVULSANT DRUG” (Baylor College of Medicine, priority 2007, published 2010).

What was measured:
[1] = tested on: pilocarpine-induced seizures; assay: Pilocarpine model of acute seizures; assay type: in vivo, Sprague Dawley rats
Procedure: (§1) All animal experiments were carried out in accordance with the National Institutes of Health guide for the care and use of laboratory animals (NIH publication 8023, revised 1996) and with the approval of the local Animal Use Committee. Unless indicated, all chemicals were obtained from Sigma Chemical Co (St. Louis Mo.). Male, Sprague Dawley rats weighing 50-74 g (young) or 147-309 g (adult) were used in this study. Acute seizures were induced by kainic acid (KA; Ocean Produce Int., Canada), pilocarpine or pentylenetetrazole (PTZ) as previously described (Lian et al 2006). These models were chosen because they initiate seizures by different mechanisms and the seizures have a relatively gradual onset compared to seizures initiated by stimulation. There was no difference in the body weight of the animals receiving the different convulsants. For pilocarpine, kainic acid and PTZ, the mean weights were 219±5 g (range 163-275 g), 215±7 g (range 183-258 g), and 216±13 g (range 147-309 g), respectively. The animals in the drug treatment groups were not different in weight from the animals in the control groups.
(§2) After administration of KA (10 mg/kg, ip), pilocarpine (scopolamine methyl bromide 1 mg/kg, s.c followed 15 min later by 300 mg/kg, ip pilocarpine) or PTZ (50 mg/kg, ip) (Lian et al., 2006), animals were continuously monitored for seizure activity for at least 5 h after KA or pilocarpine and for 30 min after PTZ. Behavioral seizures were scored by an investigator blinded to the treatment. Latency to the first wet dog shake after KA, latency to the first forelimb clonus (after pilocarpine, kainic acid or PTZ) and the score and duration of seizures were measured. When at least 1 hour had passed without any head bobbing (for pilocarpine) or any wet dog shakes (for KA), seizures were considered over. Status epilepticus lasting longer than 4 hours (for KA) or 5 hours (for pilocarpine) were assigned 4 and 5 hours for seizure duration. For animals receiving PTZ, the seizure duration was defined as the period of tonic-clonic seizures. EEG recording in the hippocampus was conducted as previously described (Lian et al., 2004). After anesthesia, a recording electrode was placed in a burr hole centered at 3.0 mm posterior to bregma, 1.8 mm lateral to the midline and then lowered 3.0 mm. A ground screw and wire was placed over the frontal region in another burr hole. This assembly was fixed to the skull with dental cement.
Each animal was assigned the score of the most severe seizure observed. The behavioral seizures induced by KA or pilocarpine were scored according to an adjusted version of the scale of Racine (Bough et al., 2002): stage 1, wet dog shakes after KA or trembling after pilocarpine; stage 2, head bobbing and stereotypes; stage 3, unilateral forelimb clonus; stage 4, bilateral forelimb clonus; stage 5, rearing and falling; stage 6, jumping and/or running followed by falling. Death within 24 h was assigned stage 7.
Adult rats received either D-F1,6BP, sodium valproate (VPA, 0.3 g/kg), 2-DG (0.25, 0.5 g/kg) or normal saline (vehicle) intraperitoneally followed 1 h later by one of the convulsants. The dose for VPA was based on experimental evidence that doses from 0.1 to 0.4 g/kg (ip) are effective in animal models (Bough and Eagles, 2001; Manent et al., 2007). Three doses of F1,6BP (0.25, 0.5 and 1 g/kg) were tested with this dosing schedule. Two additional groups were administered F1,6BP (0.5 or 1 g/kg, n=5) after pilocarpine. In this experiment, the F1,6BP was given intraperitoneally at the first behavioral seizure, which was chewing movements of the jaw. Two additional sets of animals were fed the classic ketogenic diet (No. F3666; Bio-Serv, Frenchtown, N.J.). One set of animals was given the diet beginning on postnatal day 22-26 (KD-Yng) and maintained on this diet for 4 weeks. Thus the seizures were tested in this group when the animals had reached approximately the same age (50-54 days) as the majority of the animals tested. […]

[2] = tested on: PTZ-induced generalized tonic-clonic seizures; assay: PTZ model of acute seizures; assay type: in vivo, Sprague Dawley rats
Procedure: as §1, §2
Adult rats received either D-F1,6BP, sodium valproate (VPA, 0.3 g/kg), 2-DG (0.25, 0.5 g/kg) or normal saline (vehicle) intraperitoneally followed 1 h later by one of the convulsants. The dose for VPA was based on experimental evidence that doses from 0.1 to 0.4 g/kg (ip) are effective in animal models (Bough and Eagles, 2001; Manent et al., 2007). Three doses of F1,6BP (0.25, 0.5 and 1 g/kg) were tested with this dosing schedule. Two additional groups were administered F1,6BP (0.5 or 1 g/kg, n=5) after pilocarpine. In this experiment, the F1,6BP was given intraperitoneally at the first behavioral seizure, which was chewing movements of the jaw. Two additional sets of animals were fed the classic ketogenic diet (No. F3666; Bio-Serv, Frenchtown, N.J.). One set of animals was given the diet beginning on postnatal day 22-26 (KD-Yng) and maintained on this diet for 4 weeks. Thus the seizures were tested in this group when the animals had reached approximately the same age (50-54 days) as the majority of the animals tested.
The latency to seizure onset, seizure score and seizure duration were averaged across animals in each group. Comparisons between groups were done with an analysis of variance with Bonferroni post hoc test. Statistical difference was defined as p<0.05.

[3] = tested on: spontaneous seizures after pilocarpine-induced status epilepticus; assay: Oral FDP against spontaneous seizures after pilocarpine-induced status epilepticus; assay type: in vivo; conditions: FDP 0.5% in drinking water
Procedure: Animals (n=14) were treated with pilocarpine to induce status epilepticus and subsequent spontaneous seizures. Four weeks later daily observation was begun and the number of seizures per day was determined for at least 6 days. The mean number of seizures per day over a 6 day period was determined for each animal and this was normalized to 100%. Half of the animals then had FDP added to the drinking water at a concentration of 0.5%. The number of seizures on each day was determined for each animal and calculated as percent of the baseline. The mean (±SEM) across animals in each treatment group was then calculated and plotted as a function of the days of treatment. […] Overall, the data was analyzed with a 2-way ANOVA comparing drug treatment against time and baseline rate of seizures. […] Post-hoc analysis determined that specifically on day 9 and 10 (*) the control was different than FDP-treated. Thus, oral administration of FDP has anticonvulsant activity against the generalized tonic-clonic seizures that are observed after pilocarpine-induced status epilepticus.

[4] = Preliminary studies of efficacy, trisodium vs dicalcium salt of FDP; assay type: in vivo
[5] = 1 g/kg given at first sign of seizure activity after pilocarpine

O=C(COP(=O)(O)O)[C@@H](O)[C@H](O)[C@H](O)COP(=O)(O)O [F1,6BP, Fructose-1,6-bisphosphate]
latency to forelimb clonus [1, 5]: increase
seizure duration [1, 5]: decrease
progression of the seizures ([1]; 1 g/kg given at first sign of seizure activity after pilocarpine, n=5): significantly slowed
behavioral or electrographic seizures (hippocampal EEG) ([1]; 4 rats pretreated with 1 g/kg): no behavioral or electrographic seizures
effect on the seizure parameters ([1]; F1,6BP 0.25 g/kg ip 1 h before pilocarpine, n=5): no effect
animals with a seizure score ≧3 ([1]; F1,6BP 0.5 g/kg ip 1 h before pilocarpine): 3 out of 10
animals with a seizure score ≧3 ([1]; F1,6BP 1 g/kg ip 1 h before pilocarpine): 2 out of 10
seizure duration ([1]; pretreated with 0.5 or 1 g/kg): significantly decreased
seizure score ([1]; pretreated with 0.5 or 1 g/kg): significantly decreased
latency to the seizures ([1]; the 5 animals with score ≧3 after 0.5 or 1 g/kg pretreatment): significantly increased
latency to the seizures ([2]; F1,6BP 0.25 g/kg, n=6): 107 ± 6 s
seizure duration ([2]; F1,6BP 0.25 g/kg, n=6): 18 ± 2 s
latency to the seizures ([2]; F1,6BP 0.5 g/kg, n=6): 161 ± 16 s
seizure duration ([2]; F1,6BP 0.5 g/kg, n=6): 12 ± 1 s
animals with no seizures ([2]; F1,6BP 1 g/kg): Three out of 8
latency to the seizures ([2]; F1,6BP 1 g/kg, n=7): 259 ± 32 s
seizure duration ([2]; F1,6BP 1 g/kg, n=7): 11 ± 3 s
seizures per day (percent of baseline) vs non-treatment control group ([3]; 2-way ANOVA): significantly different
animals having a seizure by day 7 ([3]; 7 animals): 1
efficacy of trisodium salt vs dicalcium salt [4]: no difference in efficacy
